pIC50: −log10 of the molar value.

In test [1] the target is T1, VEGFR-1 (Homo sapiens, UniProt P17948).
T1 construct: The VEGFR-1 tyrosine kinase domain was obtained from Upstake; purchased Upstake (so in the source)
T1 sequence (P17948 827-1158 limits assumed): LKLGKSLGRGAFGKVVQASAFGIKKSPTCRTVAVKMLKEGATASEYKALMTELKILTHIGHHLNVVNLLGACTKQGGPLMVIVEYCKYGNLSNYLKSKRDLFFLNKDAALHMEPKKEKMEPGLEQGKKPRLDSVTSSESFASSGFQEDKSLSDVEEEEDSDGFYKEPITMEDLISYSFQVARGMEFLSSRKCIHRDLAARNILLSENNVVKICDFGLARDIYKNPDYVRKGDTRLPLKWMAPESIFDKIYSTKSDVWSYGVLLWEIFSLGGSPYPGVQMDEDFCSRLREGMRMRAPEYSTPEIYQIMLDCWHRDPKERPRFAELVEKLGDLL
The test can be described thus: Biochemical kinase assay (in vitro assay), VEGFR-1. The conditions noted are these: read-out: IC50 in biochemical assays, VEGFR-1. How it is done:
(§1) Sigma protein kinase assay kits were used. 125 μL per well of Poly-Glu-Tyr (PGT) solution (250 μg/mL of PGT in PBS without Ca^2+, Mg^2+ and sodium bicarbonate) was added in a 96-well plate and overnight incubation was performed at 37 °C. The day after, coating solution was removed and wells were washed with 300 μL of PBS-Tween-20 0.05 %. The washing buffer was removed and wells were dried for 2 h at 37 °C. 90 μL of the kinase buffer was supplemented with ATP (30 μM for VEGFR-1 and VEGFR-3, and 15 μM for VEGFR-2), and the compound (EVT801 or SAR401849 at the indicated concentration or 1 % DMSO for the vehicle control). The phosphorylation reaction was initiated by the addition of 20 μL of kinase buffer without ATP supplemented with 100 ng of the tyrosine kinase (or without tyrosine kinase as control). Plates were incubated with gentle agitation at room temperature for 30 min. After 3 washes with 300 μL of washing buffer, 100 μL of phosphotyrosine specific monoclonal antibody conjugated to HRP (1:30,000) was added onto the phosphorylated PGT. Plates were incubated for 30 min at room temperature under gentle agitation. Then, 3 washes with 300 μL of washing buffer were performed. […] After 7 min at room temperature, the reaction was stopped by addition of 100 μL of […], and absorbance was determined with an Endvision spectrophotometer at 492 nm.

In test [2] the target is T2, VEGFR-1 (Homo sapiens, UniProt P17948).
T2 construct: expressed in transfected cells; host or cells: HEK293T
The test can be described thus: Cellular autophosphorylation assay, HEK293 cells transiently expressing VEGFR-1. Format: cell-based. How it is done:
Transfection of HEK293T cells and Ba/F3 cells with VEGFR-1-Flag, VEGFR-2-Flag or VEGFR-3-Flag expression constructs was performed using Fugene-6 (Roche) as per manufacturer’s protocol. Briefly, Fugene-6 was pre-incubated with Opti-Mem (Gibco) before adding DNA. After 24 h, media was replaced with serum-free culture media containing 0.2 % BSA. On the next day, cells were incubated for 1 h in 1 mM orthovanadate, harvested, dissociated and distributed at 4 x 10^5 cells in 5 mL for HEK-VEGFR-1 and HEK-VEGFR-3, and 5 x 10^4 cells per 5 mL for HEK VEGFR-2 in the presence of EVT801 or SAR401849. After 30 min, the reaction was stopped by the addition of cold PBS supplemented with 1 mM orthovanadate. Cells were then lysed with 150 μl of RIPA buffer for 15 min at 4°C, then centrifuged for 10 min at 10,000 g. Supernatants (75 μl) were distributed in duplicate on 96 well plates that were precoated with the anti-flag, and left for 1 h at room temperature. After 3 washes, the anti-phosphotyrosine conjugated to the HRP was added and incubated for 1 h at room temperature. Wells were then washed 3 times with TBS buffer containing 0.5 % Tween-20 and 2 mM MgCl2. The reaction was stopped with 50 μL of 2 N H2SO4, and the signal was read with Envision at the wavelengths of 485 nm and 530 nm.
T2 sequence (P17948 27-1338): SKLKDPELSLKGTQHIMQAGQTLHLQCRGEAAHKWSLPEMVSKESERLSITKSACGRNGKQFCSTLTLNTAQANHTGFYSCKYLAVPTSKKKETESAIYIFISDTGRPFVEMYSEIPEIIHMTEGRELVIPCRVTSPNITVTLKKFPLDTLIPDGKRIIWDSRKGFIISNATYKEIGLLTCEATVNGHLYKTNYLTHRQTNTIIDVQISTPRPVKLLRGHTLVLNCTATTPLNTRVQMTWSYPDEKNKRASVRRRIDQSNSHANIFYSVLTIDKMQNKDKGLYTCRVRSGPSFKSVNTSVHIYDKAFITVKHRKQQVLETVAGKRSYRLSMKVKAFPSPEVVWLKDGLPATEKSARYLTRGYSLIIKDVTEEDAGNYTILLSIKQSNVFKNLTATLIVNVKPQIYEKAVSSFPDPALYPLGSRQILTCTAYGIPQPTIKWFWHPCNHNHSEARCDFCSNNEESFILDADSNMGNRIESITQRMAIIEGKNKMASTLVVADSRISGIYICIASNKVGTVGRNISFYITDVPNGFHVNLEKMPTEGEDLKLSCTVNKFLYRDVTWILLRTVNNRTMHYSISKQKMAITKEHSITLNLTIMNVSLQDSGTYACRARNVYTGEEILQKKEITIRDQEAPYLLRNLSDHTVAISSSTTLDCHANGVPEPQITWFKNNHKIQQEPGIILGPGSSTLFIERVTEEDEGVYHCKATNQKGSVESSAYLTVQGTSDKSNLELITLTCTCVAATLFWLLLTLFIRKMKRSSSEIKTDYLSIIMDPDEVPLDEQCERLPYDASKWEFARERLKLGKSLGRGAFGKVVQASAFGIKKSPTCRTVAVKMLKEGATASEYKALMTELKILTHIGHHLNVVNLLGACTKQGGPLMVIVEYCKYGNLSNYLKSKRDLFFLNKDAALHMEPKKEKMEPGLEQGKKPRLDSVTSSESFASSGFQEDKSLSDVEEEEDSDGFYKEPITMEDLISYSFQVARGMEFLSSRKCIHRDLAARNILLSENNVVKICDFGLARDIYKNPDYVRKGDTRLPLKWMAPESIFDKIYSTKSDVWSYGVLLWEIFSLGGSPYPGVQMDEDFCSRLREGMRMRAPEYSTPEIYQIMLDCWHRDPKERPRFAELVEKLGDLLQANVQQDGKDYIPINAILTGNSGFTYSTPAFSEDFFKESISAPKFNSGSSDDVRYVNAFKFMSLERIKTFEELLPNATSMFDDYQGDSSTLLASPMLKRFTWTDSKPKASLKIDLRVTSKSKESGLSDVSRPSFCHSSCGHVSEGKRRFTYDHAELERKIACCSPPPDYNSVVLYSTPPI

A further test concerns ERK1/2 phosphorylation. The test can be described thus: VEGF-C-induced ERK1/2 phosphorylation in hLMVEC. The conditions noted are these: Homo sapiens, read-out: IC50, inhibition of VEGF-C-induced ERK1/2 phosphorylation. The test is classed as cell-based. The method, then:
hLMVECs were plated in 6-well tissue culture plates at a density of 2 x 10^5 cells for 48 h. Cells were then serum deprived for 2 h and either stimulated or mock stimulated for 10 min with VEGFC (500 ng/mL) in the presence or absence of EVT801. Then, cells were lysed and subjected to phospho-MAPK array or to phospho-ERK ELISA according to manufacturer’s instructions.

Test [3] has as its system NCI-H1703 tumor xenografts. The test is described as follows: NCI-H1703 subcutaneous xenograft tumor mouse model. The test is classed as in vivo, mice. The conditions noted are these: 30 mg/kg twice per day. How it is done:
A total number of 40 homozygous NOD.CB17 Prkdc^scid/NCrHsd mice were used for the xenograft tumor model. On the day of implantation, NCI-H1703 cells were harvested and suspended at a concentration of 1 × 10^8 cells per mL in an equal mix of Cultrex:RPMI without supplements. A volume of 100 μL was injected into the right hind flank of each animal. Tumor volumes were monitored until mean tumor volume reached 150 mm^3. Then, mice were stratified into four treatment groups of each 10 mice and orally dosed twice per day with either EVT801 30 mg/kg and EVT801 vehicle [Soluplus (BASF)/water/hydroxypropylcellulose SL (Nisso America)], or 30 mk/kg pazopanib and pazopanib vehicle (0.5% Hydroxypropyl methylcellulose trimellitate (HPMCT) + 0.1% Tween-80). A period of 8 hours was observed between the first and second daily dose.

The next test deals with VEGFR-3 (Homo sapiens, UniProt P35916). The test is described as follows: Biochemical kinase assay (in vitro assay), VEGFR-3. More on the design: expressed in transfected cells; host or cells: HEK293T. The conditions noted are these: read-out: IC50 in biochemical assays, VEGFR-3. How it is done: as §1
VEGFR-3, sequence (P35916 25-1363): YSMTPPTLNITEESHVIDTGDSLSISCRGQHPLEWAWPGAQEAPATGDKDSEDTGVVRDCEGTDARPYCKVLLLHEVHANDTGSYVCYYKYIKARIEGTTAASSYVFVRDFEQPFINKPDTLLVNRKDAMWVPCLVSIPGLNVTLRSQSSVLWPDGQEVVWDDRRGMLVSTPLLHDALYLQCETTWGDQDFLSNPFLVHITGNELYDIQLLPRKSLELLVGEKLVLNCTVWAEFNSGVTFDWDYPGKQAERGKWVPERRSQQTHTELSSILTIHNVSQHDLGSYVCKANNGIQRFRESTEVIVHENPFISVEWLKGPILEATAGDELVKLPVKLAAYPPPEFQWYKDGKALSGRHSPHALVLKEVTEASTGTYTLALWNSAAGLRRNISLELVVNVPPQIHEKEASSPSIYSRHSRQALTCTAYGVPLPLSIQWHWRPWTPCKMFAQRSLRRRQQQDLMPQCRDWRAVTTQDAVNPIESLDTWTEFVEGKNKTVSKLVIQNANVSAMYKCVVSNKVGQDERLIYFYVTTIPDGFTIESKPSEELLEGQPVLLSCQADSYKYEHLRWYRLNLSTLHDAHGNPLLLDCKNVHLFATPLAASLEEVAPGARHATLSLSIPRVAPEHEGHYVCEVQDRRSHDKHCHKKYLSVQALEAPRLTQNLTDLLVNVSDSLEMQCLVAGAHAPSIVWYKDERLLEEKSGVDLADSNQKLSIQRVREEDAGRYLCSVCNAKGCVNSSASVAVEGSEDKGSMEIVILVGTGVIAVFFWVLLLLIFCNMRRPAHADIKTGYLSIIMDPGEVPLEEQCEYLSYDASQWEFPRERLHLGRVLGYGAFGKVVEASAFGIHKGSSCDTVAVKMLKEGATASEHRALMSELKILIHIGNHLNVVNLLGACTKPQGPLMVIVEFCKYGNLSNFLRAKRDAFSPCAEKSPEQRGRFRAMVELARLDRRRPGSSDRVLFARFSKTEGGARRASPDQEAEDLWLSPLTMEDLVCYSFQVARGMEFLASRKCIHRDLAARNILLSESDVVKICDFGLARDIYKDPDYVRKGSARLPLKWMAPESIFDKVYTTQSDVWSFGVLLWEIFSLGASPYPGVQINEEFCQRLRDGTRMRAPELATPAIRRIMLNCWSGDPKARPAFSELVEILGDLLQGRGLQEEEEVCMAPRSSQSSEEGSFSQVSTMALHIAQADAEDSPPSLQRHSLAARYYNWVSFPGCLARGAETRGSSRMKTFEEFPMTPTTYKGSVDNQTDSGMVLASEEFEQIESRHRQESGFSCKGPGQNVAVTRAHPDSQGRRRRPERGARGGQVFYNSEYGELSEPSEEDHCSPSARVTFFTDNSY

As to `CCn1c(N)c(-c2ncc[nH]2)c(=O)c2ccc(C#C[C@@](C)(O)COC)nc21` [EVT801], the pIC50 was 6.40 at VEGFR-1 [1]; 5.67 at VEGFR-1 [2] (HEK293 cells, read-out: IC50 in cellular assays, VEGFR-1 autophosphorylation); 7.89 in the test on ERK1/2 phosphorylation; 7.96 on VEGFR-3. For the same compound, at VEGFR-1 [2] (HEK293T cellular autophosphorylation assay), the “maximum inhibition of VEGFR-1” value is recorded as “below 50%”. In addition, the “CD31 IHC, tumor vessels” value in test [3] is “decreased the number of vessels while increasing the proportion of larger ones”. Besides, the “decrease of tumor weight compared with vehicle” value in test [3] (endpoint) was determined as 82%. For the same compound, the “T/C ratio, tumor growth” value in test [3] (oral, vs corresponding vehicle) is given as 24%.

For the origin of these results see PMC10035370, “Targeting Tumor Angiogenesis with the Selective VEGFR-3 Inhibitor EVT801 in Combination with Cancer Immunotherapy” (Cancer Research Communications, 2022).
